Data on 24 compounds can be found in patent EP4563146A1 (IRBM S.P.A., priority 2023, dated 2025).

Like-named read-outs stand apart in the source and are kept apart here. Some results are limits rather than exact numbers.

Experiment [1] addresses T1, West Nile Virus (WNV) NS2B-NS3 protease (West Nile virus, UniProt Q9Q6P4).
T1 construct: NS2B1423-1470); purchased R&D 2907-SE-020
The experiment in a line: WNV protease inhibition assay. The format is biochemical. Conditions: Table 4; letter codes for IC50. The text has this:
WNV protease inhibition assay

Another experiment relates to ZIKV replicon. The experiment in a line: ZIKV replication inhibition assay (NanoLuc replicon in Vero cells). Conditions: Zika virus, Vero, 72 h. For orientation: A replicon is a self-replicating genome or part of one, used to study replication in cells.
The mark [2] stands for this setting: read-out: ZIKA Cell_Nanoluc, Vero cells with stable ZIKV replicon, 72 h, Nano-Glo readout.

T1 sequence (Q9Q6P4 1423-1470): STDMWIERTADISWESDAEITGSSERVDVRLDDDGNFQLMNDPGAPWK
T1 sequence (Q9Q6P4 1506-1689): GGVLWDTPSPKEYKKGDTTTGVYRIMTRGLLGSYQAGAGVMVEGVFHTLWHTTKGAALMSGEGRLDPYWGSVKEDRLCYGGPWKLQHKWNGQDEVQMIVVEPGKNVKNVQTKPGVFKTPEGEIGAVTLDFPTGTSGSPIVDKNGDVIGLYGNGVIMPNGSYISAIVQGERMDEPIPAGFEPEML

As a reminder, the IC50 is the concentration that gives 50% inhibition. The compound `Cc1ncnc(C)c1-c1ccc(C[n+]2cc([N-]C(=O)Nc3cccc(C(F)(F)F)c3)on2)nn1` [Example 184, (3-((6-(4,6-Dimethylpyrimidin-5-yl)pyridazin-3-yl)methyl)-1,2,3-oxadiazol-3-ium-5-yl)((3-(trifluoromethyl)phenyl)carbamoyl)amide] came in with an IC50 in experiment [1] of 100 to 1000 nM. For the same compound, the EC50 in the experiment on ZIKV replicon (setting [2]) was 100 to 1000 nM.
In turn, `O=C([N-]c1c[n+](CC23CCC(c4cncnc4)(CC2)C3)no1)Nc1ccnc(C(F)(F)F)c1` [Example 185, (3-((4-(Pyrimidin-5-yl)bicyclo[2.2.1]heptan-1-yl)methyl)-1,2,3-oxadiazol-3-ium-5-yl)((2-(trifluoromethyl)pyridin-4-yl)carbamoyl)amide] returned an IC50 in experiment [1] of 100 to 1000 nM. Further, in the experiment with ZIKV replicon (setting [2]), the EC50 was 1000 to 20000 nM.
In experiment [1], `O=C([N-]c1c[n+](C[C@H]2CC[C@H](c3cncnc3)CC2)no1)Nc1cccc(C(F)(F)F)c1` [Example 186, (3-(((1R,4R)-4-(Pyrimidin-5-yl)cyclohexyl)methyl)-1,2,3-oxadiazol-3-ium-5-yl)((3-(trifluoromethyl)phenyl)carbamoyl)amide] gave an IC50 of 100 to 1000 nM. Also, the EC50 in the experiment with ZIKV replicon (read-out: ZIKA Cell_Nanoluc) lay within 1000 to 20000 nM.
In experiment [1], `O=C([N-]c1c[n+](C[C@H]2CC[C@H](c3cncnc3)CC2)no1)Nc1ccnc(C(F)(F)F)c1` [Example 187, (3-(((1R,4R)-4-(Pyrimidin-5-yl)cyclohexyl)-methyl)-1,2,3-oxadiazol-3-ium-5-yl)((2-(trifluoromethyl)pyridin-4-yl)carbamoyl)amide] yielded an IC50 of 100 to 1000 nM. For the same compound, the EC50 with ZIKV replicon (read-out: ZIKA Cell_Nanoluc) was 100 to 1000 nM.
`Cc1nnccc1-c1ccc(C[n+]2cc([N-]C(=O)Nc3ccnc(C(F)(F)F)c3)on2)cc1` [Example 188, (3-(4-(3-Methylpyridazin-4-yl)benzyl)-1,2,3-oxadiazol-3-ium-5-yl)((2-(trifluoromethyl)-pyridin-4-yl)carbamoyl)amide] showed an IC50 in experiment [1] below 100 nM. Further, in the experiment on ZIKV replicon (setting [2]), the EC50 is below 100 nM.
The compound `CN(C)C[C@H]1CC[C@H]([n+]2cc([N-]C(=O)Nc3cc(NC(=O)Cc4ccccc4O)cc(C(F)(F)F)c3)on2)CC1` [Example 191, (3-((1R,4R)-4-((Dimethylamino)methyl)-cyclohexyl)-1,2,3-oxadiazol-3-ium-5-yl)((3-(2-(2-hydroxyphenyl)acetamido)-5-(trifluoromethyl)-phenyl)carbamoyl)amide] gave an IC50 in experiment [1] of 1000 to 20000 nM. In addition, the EC50 in the experiment with ZIKV replicon (read-out: ZIKA Cell_Nanoluc) is below 100 nM.
As for `CN(C)C[C@H]1CC[C@H]([n+]2cc([N-]C(=O)Nc3cc(NC(=O)Cc4ccccc4Cl)nc(C(F)(F)F)c3)on2)CC1` [Example 193, ((2-(2-(2-Chlorophenyl)acetamido)-6-(trifluoromethyl)pyridin-4-yl)carbamoyl)(3-((1R,4R)-4-((dimethylamino)methyl)-cyclohexyl)-1,2,3-oxadiazol-3-ium-5-yl)amide], the IC50 in experiment [1] was 1000 to 20000 nM. Moreover, the EC50 in the experiment with ZIKV replicon (read-out: ZIKA Cell_Nanoluc) is 100 to 1000 nM.
With `CN(C)C[C@H]1CC[C@H]([n+]2cc([N-]C(=O)Nc3cc(NC(=O)C(F)c4ccccc4F)cc(C(F)(F)F)c3)on2)CC1` (stereo partly drawn) [Example 194, (3-((1R,4R)-4-((Dimethylamino)methyl)-cyclohexyl)-1,2,3-oxadiazol-3-ium-5-yl)((3-(2-fluoro-2-(2-fluorophenyl)acetamido)-5-(trifluoromethyl)phenyl)carbamoyl)amide], in experiment [1], the IC50 lay within 100 to 1000 nM. Besides, in the experiment on ZIKV replicon (read-out: ZIKA Cell_Nanoluc), the EC50 is below 100 nM.
With `CN(C)C[C@H]1CC[C@H]([n+]2cc([N-]C(=O)Nc3cc(NC(=O)C4Cc5ccccc54)cc(C(F)(F)F)c3)on2)CC1` (stereo partly drawn) [Example 195], the IC50 in experiment [1] fell in the range of 1000 to 20000 nM. The EC50 in the experiment on ZIKV replicon (read-out: ZIKA Cell_Nanoluc) lay in the range of 100 to 1000 nM.
In experiment [1], `CN(C)C[C@H]1CC[C@H]([n+]2cc([N-]C(=O)Nc3cc(NC(=O)Cc4cccc(O)n4)cc(C(F)(F)F)c3)on2)CC1` [Example 196, (3-((1R,4R)-4-((Dimethylamino)methyl)-cyclohexyl)-1,2,3-oxadiazol-3-ium-5-yl)((3-(2-(6-hydroxypyridin-2-yl)acetamido)-5-(trifluoromethyl)phenyl)carbamoyl)amide] registered an IC50 of 1000 to 20000 nM. Further, the EC50 in the experiment with ZIKV replicon (read-out: ZIKA Cell_Nanoluc) lay in the range of 100 to 1000 nM.
In experiment [1], `Cc1noc(C)c1CC(=O)Nc1cc(NC(=O)[N-]c2c[n+]([C@H]3CC[C@H](CN(C)C)CC3)no2)cc(C(F)(F)F)c1` [Example 197, (3-((1R,4R)-4-((Dimethylamino)methyl)-cyclohexyl)-1,2,3-oxadiazol-3-ium-5-yl)((3-(2-(3,5-dimethylisoxazol-4-yl)acetamido)-5-(trifluoromethyl)phenyl)carbamoyl)amide] gave an IC50 of 1000 to 20000 nM. Besides, the EC50 in the experiment with ZIKV replicon (read-out: ZIKA Cell_Nanoluc) was below 100 nM.
As to `CN(C)C[C@H]1CC[C@H]([n+]2cc([N-]C(=O)Nc3cc(NC(=O)Cc4c(F)cccc4Cl)cc(C(F)(F)F)c3)on2)CC1` [Example 198, ((3-(2-(2-Chloro-6-fluorophenyl)acetamido)-5-(trifluoromethyl)phenyl)carbamoyl)(3-((1R,4R)-4-((dimethylamino)methyl)cyclohexyl)-1,2,3-oxadiazol-3-ium-5-yl)amide], the IC50 in experiment [1] lay in the range of 1000 to 20000 nM. Besides, the EC50 with ZIKV replicon (read-out: ZIKA Cell_Nanoluc) is below 100 nM.
With `CN(C)C[C@H]1CC[C@H]([n+]2cc([N-]C(=O)Nc3cc(NC(=O)Cc4c(F)cccc4F)cc(C(F)(F)F)c3)on2)CC1` [Example 199, ((3-(2-(2,6-Difluorophenyl)acetamido)-5-(trifluoromethyl)phenyl)carbamoyl)(3-((1R,4R)-4-((dimethylamino)methyl)cyclohexyl)-1,2,3-oxadiazol-3-ium-5-yl)amide], the IC50 in experiment [1] was 100 to 1000 nM. For the same compound, the EC50 with ZIKV replicon (read-out: ZIKA Cell_Nanoluc) was below 100 nM.
`Cc1ccccc1CC(=O)Nc1cc(NC(=O)[N-]c2c[n+]([C@@H]3CCC[C@H](N(C)C)C3)no2)cc(C(F)(F)F)c1` [Example 202, (3-((1R,3S)-3-(Dimethylamino)cyclohexyl)-1,2,3-oxadiazol-3-ium-5-yl)((3-(2-(o-tolyl)acetamido)-5-(trifluoromethyl)phenyl)-carbamoyl)amide]: the IC50 in experiment [1] lay in the range of 100 to 1000 nM. Moreover, in the experiment on ZIKV replicon (setting [2]), the EC50 was in the range of 1000 to 20000 nM.
The matching figures for `Cc1ccccc1CC(=O)Nc1cc(NC(=O)[N-]c2c[n+]([C@@H]3CCCC[C@H]3O)no2)cc(C(F)(F)F)c1` [Example 203, (3-((1R,2R)-2-Hydroxycyclohexyl)-1,2,3-oxadiazol-3-ium-5-yl)((3-(2-(o-tolyl)acetamido)-5-(trifluoromethyl)phenyl)carbamoyl)amide]: 100 to 1000 nM and 100 to 1000 nM.
On to `CN(C)[C@H]1CCC[C@@H]([n+]2cc([N-]C(=O)Nc3ccnc(C(F)(F)F)c3)on2)C1` [Example 204, (3-((1R,3S)-3-(Dimethylamino)cyclohexyl)-1,2,3-oxadiazol-3-ium-5-yl)((2-(trifluoromethyl)-pyridin-4-yl)carbamoyl)amide], for which the IC50 in experiment [1] is 100 to 1000 nM. The EC50 in the experiment on ZIKV replicon (setting [2]) lay in the range of 1000 to 20000 nM.
The compound `CC(C(=O)Nc1cc(NC(=O)[N-]c2c[n+]([C@H]3CC[C@H](CN(C)C)CC3)no2)cc(C(F)(F)F)c1)c1ccccc1Cl` (stereo partly drawn) [Example 205, ((3-(2-(2-Chlorophenyl)propanamido)-5-(trifluoromethyl)phenyl)carbamoyl)(3-((1R,4R)-4-((dimethylamino)methyl)cyclohexyl)-1,2,3-oxadiazol-3-ium-5-yl)amide] showed an IC50 in experiment [1] of 100 to 1000 nM. Also, in the experiment on ZIKV replicon (read-out: ZIKA Cell_Nanoluc), the EC50 lay in the range of 1000 to 20000 nM.
Compound `Cc1ccccc1CC(=O)Nc1cc(NC(=O)[N-]c2c[n+]([C@H]3CC[C@H](C(C)(C)O)CC3)no2)cc(C(F)(F)F)c1` [Example 206, (3-((1R,4R)-4-(2-Hydroxypropan-2-yl)cyclohexyl)-1,2,3-oxadiazol-3-ium-5-yl)((3-(2-(o-tolyl)acetamido)-5-(trifluoromethyl)phenyl)-carbamoyl)amide] yielded an IC50 in experiment [1] below 100 nM. The EC50 with ZIKV replicon (read-out: ZIKA Cell_Nanoluc) lay within 100 to 1000 nM.
In experiment [1], `Cc1ncnc(C)c1-c1ccc(C[n+]2cc([N-]C(=O)Nc3ccc(C#N)c(C(F)(F)F)c3)on2)cc1` [Example 207, ((4-Cyano-3-(trifluoromethyl)phenyl)-carbamoyl)(3-(4-(4,6-dimethylpyrimidin-5-yl)benzyl)-1,2,3-oxadiazol-3-ium-5-yl)amide] yielded an IC50 of 100 to 1000 nM. Besides, the EC50 in the experiment with ZIKV replicon (setting [2]) is 100 to 1000 nM.
Consider `CN(C)C[C@H]1CC[C@H]([n+]2cc([N-]C(=O)Nc3cc(NC(=O)C(C)(C)c4ccccc4)cc(C(F)(F)F)c3)on2)CC1` [Example 208, (3-((1R,4R)-4-((Dimethylamino)methyl)-cyclohexyl)-1,2,3-oxadiazol-3-ium-5-yl)((3-(2-methyl-2-phenylpropanamido)-5-(trifluoromethyl)phenyl)carbamoyl)amide], for which the IC50 in experiment [1] lay within 100 to 1000 nM. In the experiment with ZIKV replicon (read-out: ZIKA Cell_Nanoluc), the EC50 lay in the range of 1000 to 20000 nM.
`COc1cc(NC(=O)[N-]c2c[n+](Cc3ccc(-c4c(C)ncnc4C)cc3)no2)ccn1` [Example 209, (3-(4-(4,6-Dimethylpyrimidin-5-yl)benzyl)-1,2,3-oxadiazol-3-ium-5-yl)((2-methoxypyridin-4-yl)carbamoyl)amide]: the IC50 in experiment [1] was 100 to 1000 nM. Besides, the EC50 with ZIKV replicon (setting [2]) is 1000 to 20000 nM.
The matching figures for `Cc1nc(-c2ccc(C[n+]3cc([N-]C(=O)Nc4ccnc(C(F)(F)F)c4)on3)cc2)cs1` [Example 210, (3-(4-(2-Methylthiazol-4-yl)benzyl)-1,2,3-oxadiazol-3-ium-5-yl)((2-(trifluoromethyl)pyridin-4-yl)carbamoyl)amide]: 100 to 1000 nM and 1000 to 20000 nM.
In turn, `Cc1nsc(C)c1-c1ccc(C[n+]2cc([N-]C(=O)Nc3ccnc(C(F)(F)F)c3)on2)cc1` [Example 211, (3-(4-(3,5-Dimethylisothiazol-4-yl)benzyl)-1,2,3-oxadiazol-3-ium-5-yl)((2-(trifluoromethyl)-pyridin-4-yl)carbamoyl)amide] yielded an IC50 in experiment [1] of 100 to 1000 nM. The EC50 in the experiment with ZIKV replicon (setting [2]) fell in the range of 1000 to 20000 nM.
`Cc1cccc(CC(=O)Nc2cc(NC(=O)[N-]c3c[n+]([C@H]4CC[C@H](CN(C)C)CC4)no3)cc(C(F)(F)F)c2)c1C` [Example 212, (3-((1R,4R)-4-((Dimethylamino)methyl)-cyclohexyl)-1,2,3-oxadiazol-3-ium-5-yl)((3-(2-(2,3-dimethylphenyl)acetamido)-5-(trifluoromethyl)phenyl)carbamoyl)amide]: the IC50 in experiment [1] lay within 100 to 1000 nM. The EC50 in the experiment with ZIKV replicon (read-out: ZIKA Cell_Nanoluc) fell in the range of 1000 to 20000 nM.
